From US20190365675A1, “COMPOSITIONS FOR THE PREVENTION AND/OR TREATMENT OF ALCOHOL USE DISORDERS” (SERVICIO ANDALUZ DE SALUD, priority 2016, published 2019)

Assays:
Assay type in all cases: in vivo, Wistar rats
[1] = system: IκBα; assay: IκBα mRNA and protein in frontal cortex cytosol extracts after ethanol intoxication; conditions: OEA pre-treatment
Procedure: The animals were treated with intragastric (i.g.) ethanol 3 times a day using an i.g. cannula (16G needle, Fisher Scientific, Waltham, Mass., USA), following a protocol based on a slightly modified standard 4-day alcohol intoxication pattern (Bernier et al., 2002a, b) (FIG. 1A). The ethanol doses were administered every 8 h for a total time of 4 days. The rats treated with ethanol received an initial loading dose of 5 g/kg of ethanol in a 30% solution (w/v) and then a maximum maintenance dose of 3 g/kg, which were determined based on blood ethanol levels (BEL). This repeated standard alcohol intoxication paradigm kept BEL intoxication relatively constant in a range of sedation/ataxia (190 to 430 mg/dl, Table 3), according to the 6-point alcohol intoxication behavior scale (Majchrowicz, 1975). The mean dose of ethanol/rat/day (days 1-4) was 7.06 g/kg, similar to other studies (Obernier et al., 2002a, b). […] The autoradiograph was quantified by densitometry (NIH ImageJ® software, National Biosciences, Lincoln, Nebr. USA) and expressed as optical density (OD). […] The quantitative changes in mRNA levels were estimated by means of RT-PCR, carried out in the presence of the SYBR green primer using a 20-L reaction in a Rotor-Gene (Corbett Research®, Mortlake, NSW, Australia). […]

[2] = system: rats; assay: Elevated plus maze test during ethanol withdrawal
Procedure: In this third experiment (n=25), the treatment with ethanol intoxication and pre-treatment with OEA applied in experiment 2 was repeated, and the animals were subjected to elevated plus maze test 24 h and 12 days after the last forced administration of ethanol and to the forced swim test 48 h after the ethanol intoxication protocol. The rats were subjected to the forced swim test two days after the last ethanol force-feeding (see FIG. 1C for the experimental design), and specific behaviors were recorded with a digital video camera for 5 minutes. These same rats were also subjected to the elevated plus maze test equipped with infrared light photography (Panlab, Barcelona, Spain) 1 and 12 days after the last ethanol force-feeding, where the animals were allowed to freely explore the maze for 5 minutes. The tests were performed 3 h after the start of the dark phase.

[3] = system: control animals; assay: OEA time curve in control animals; conditions: time curve 3 h, 6 h, 24 h; some trends at 3 h (TLR4, p65)
Procedure: A time curve (n=18) was also established with OEA (3 h, 6 h, and 24 h) to rule out any effect in the control animals.

[4] = Blood ethanol levels (BEL) during 4-day alcohol intoxication protocol; conditions: before and after force-feeding; two-way repeated measure ANOVA n.s.
Procedure: The animals were treated with intragastric (i.g.) ethanol 3 times a day using an i.g. cannula (16G needle, Fisher Scientific, Waltham, Mass., USA), following a protocol based on a slightly modified standard 4-day alcohol intoxication pattern (Bernier et al., 2002a, b) (FIG. 1A). The ethanol doses were administered every 8 h for a total time of 4 days. The rats treated with ethanol received an initial loading dose of 5 g/kg of ethanol in a 30% solution (w/v) and then a maximum maintenance dose of 3 g/kg, which were determined based on blood ethanol levels (BEL). This repeated standard alcohol intoxication paradigm kept BEL intoxication relatively constant in a range of sedation/ataxia (190 to 430 mg/dl, Table 3), according to the 6-point alcohol intoxication behavior scale (Majchrowicz, 1975). The mean dose of ethanol/rat/day (days 1-4) was 7.06 g/kg, similar to other studies (Obernier et al., 2002a, b). To confirm intoxication, BEL was determined in blood samples taken from the tail 120 minutes before and after the second i.g. administration of ethanol of the day, which was done at 3 pm by means of the use of electrochemical detection of an enzymatic reaction with an AM1 alcohol analyzer (Analox Instruments, London, United Kingdom). […]

SMILES: CCCCCCCC/C=C\CCCCCCCC(=O)NCCO [OEA, oleoylethanolamide]
- Ethanol-induced IκBα protein expression ([1]; frontal cortex cytosol extracts): did not counteract
- Ethanol-induced increase in IκBα mRNA levels ([1]; frontal cortex): did not counteract
- Elevated plus maze: percentage of entries and time in the open arms ([2]; 24 h after ethanol intoxication, Dunn's post-hoc test did not find significant effects): clear trend that shows a clear anxiolytic effect
- Elevated plus maze: percentage of entries and time in the open arms ([2]; 12 days after ethanol intoxication): not significant
- Effect of OEA on the parameters in control animals [3]: did not significantly modify
- Effect of OEA pre-treatment on BEL reached during days 2-4 [4]: did not change
